Assay results from patent US6958141B2, “Rhenium and technetium complexes containing a hypoxia-localizing moiety” (Bracco International B.V., priority 1991, dated 2005).

What was measured:
[1] = Determination of reduction potential by cyclic voltammetry; assay type: physicochemical; conditions: for Epc(V): cyclic voltammetry in dimethylformamide at Hg, vs. Ag/AgNO3; for Reduction process: cyclic voltammetry in dimethylformamide
Protocol: The reduction potentials of misonidazole, ^99TcO(PnAO), and ^99Tc-hypoxia-localizing tracers were determined by cyclic voltammetry (C.V.) in dimethylformamide. […] The reference electrode was Ag/AgNO3 with an acetonitrile filling solution saturated with LiCl. The counter electrode was a platinum wire. Voltamograms at mercury were determined at scan rates of 50, 100, 200, and 500 mV/s.
The solutions used in C.V. studies contained test sample at a concentration of 0.2-0.7 mM and tetrabutylammonium tetrafluoroborate (Bu4NBF4) or tetrabutylammonium hexafluorophosphate (Bu4NPF6) supporting electrolyte at a concentration of 0.1M. The solution was deoxygenated by bubbling solvent-saturated nitrogen or argon through the solution for 15 minutes. Variations in the reference potential were accounted for by determining the C.V. of a Ru(acac)3 standard on a daily basis.

xanthine oxidase = molecular target: T1, xanthine oxidase (Bos taurus, UniProt P80457); assay: Reduction of the Tc nitroimidazole complexes by xanthine oxidase; assay type: biochemical; conditions: xanthine oxidase 1.25 units, hypoxanthine, pH 7.4, anaerobic (argon), up to 7 hours
T1 construct: purchased Boeringer (sic; Boehringer)
T1 sequence (P80457 whole entry): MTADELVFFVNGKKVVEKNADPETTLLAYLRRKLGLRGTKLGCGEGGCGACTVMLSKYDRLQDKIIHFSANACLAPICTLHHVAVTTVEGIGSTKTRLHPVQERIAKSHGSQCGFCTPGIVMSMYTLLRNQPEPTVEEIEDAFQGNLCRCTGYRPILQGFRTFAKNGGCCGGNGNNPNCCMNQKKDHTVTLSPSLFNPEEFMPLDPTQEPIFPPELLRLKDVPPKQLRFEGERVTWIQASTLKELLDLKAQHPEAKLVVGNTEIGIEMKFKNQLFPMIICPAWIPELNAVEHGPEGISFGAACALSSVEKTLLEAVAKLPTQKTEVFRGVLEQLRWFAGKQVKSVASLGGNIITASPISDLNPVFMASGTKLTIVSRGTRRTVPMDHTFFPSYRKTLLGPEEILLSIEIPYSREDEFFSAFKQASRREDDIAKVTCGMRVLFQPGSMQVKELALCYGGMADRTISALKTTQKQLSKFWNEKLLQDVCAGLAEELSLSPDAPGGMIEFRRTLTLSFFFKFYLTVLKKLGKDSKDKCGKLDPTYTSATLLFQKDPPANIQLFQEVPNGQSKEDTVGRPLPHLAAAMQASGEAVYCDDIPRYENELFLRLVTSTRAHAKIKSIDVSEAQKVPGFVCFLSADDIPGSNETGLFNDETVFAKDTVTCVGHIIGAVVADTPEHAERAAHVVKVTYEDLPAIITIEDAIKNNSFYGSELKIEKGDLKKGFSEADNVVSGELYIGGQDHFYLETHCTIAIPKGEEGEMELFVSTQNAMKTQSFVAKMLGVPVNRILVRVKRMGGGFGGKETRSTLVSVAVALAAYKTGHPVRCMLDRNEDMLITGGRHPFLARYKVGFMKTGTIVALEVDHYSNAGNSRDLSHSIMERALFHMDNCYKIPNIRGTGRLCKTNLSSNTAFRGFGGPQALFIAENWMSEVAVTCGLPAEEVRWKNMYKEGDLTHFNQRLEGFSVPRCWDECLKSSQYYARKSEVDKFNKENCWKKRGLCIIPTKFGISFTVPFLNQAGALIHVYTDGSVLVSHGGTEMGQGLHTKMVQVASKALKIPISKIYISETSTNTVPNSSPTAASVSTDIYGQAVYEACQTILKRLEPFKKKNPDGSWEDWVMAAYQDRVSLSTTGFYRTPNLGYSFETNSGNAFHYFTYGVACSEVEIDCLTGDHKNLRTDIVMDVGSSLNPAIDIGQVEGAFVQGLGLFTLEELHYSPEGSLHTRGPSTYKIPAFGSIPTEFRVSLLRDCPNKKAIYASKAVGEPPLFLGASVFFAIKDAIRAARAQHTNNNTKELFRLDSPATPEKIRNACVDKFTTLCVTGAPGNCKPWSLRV
From the text: The enzyme xanthine oxidase (in the presence of xanthine or hypoxanthine) is known to reduce the nitro group of such nitroimidazole-containing compounds as misonidazole and metronidazole (see for example P. D. Josephy, B. Palcic and L. D. Skarsgard,. “Reduction of Misonidazole and its Derivatives by Xanthine Oxidase”, Biochem. Pharmacol., 1981, 30, 849), and it has been postulated that such nitro reduction under anaerobic conditions is responsible for the selective trapping of these compounds in hypoxic tissue. Thus, a technetium or rhenium containing nitroimidazole complex should be capable of being reduced by xanthine oxidase under anaerobic conditions in the presence of hypoxanthine.
To a 2.5 mL quartz cuvette was added 0.25 micromoles of the ^99Tc-nitroimidazole complex of Example 6 or 6b in 125 μL of dimethylformamide, 1 mL of 0.01M hypoxanthine in pH 7.4 sodium phosphate buffer (0.1M), and 0.875 mL of 0.1M sodium phosphate buffer (pH 7.4) that contained 20 mg/L of disodium ethylenediamine tetraacetic acid (EDTA). The cuvette was sealed with a rubber septum, and purged with argon for 15 minutes to remove oxygen. To this was added 1.25 units of the enzyme xanthine oxidase (Boeringer) in 0.5 mL of deoxygenated pH 7.4 phosphate buffer. The cuvette was inverted to mix, and the UV/visible spectrum of the solution was recorded from 280 to 600 nm at 15 minute intervals.
It is believed that the disappearance of this nitro absorbance is due to reduction of the nitro group by xanthine oxidase.
In a parallel control reaction, the reagents above were mixed in the same fashion, but the ^99Tc complex of 3,3,9,9-tetramethyl-4,8-diazaundecane-2,10-dione dioxime (prepared by the method of Jurisson et al., Inorg. Chem., 1986, 25, 543) was substituted for the technetium complexes of Examples 6 or 6b.

[2] = system: hypoxic ischemic border zone; assay: Rabbit focal myocardial ischemia model (LAD occlusion), double-label autoradiography; assay type: in vivo; conditions: permanent LAD coronary artery ligation, intravenous tracer, heart sections
Protocol: A model of focal myocardial ischemia in the rabbit was developed, using permanent ligation of the left anterior descending (LAD) coronary artery. The model consisted of two studies. In the first, relative regional myocardial blood flow (MBF) and relative regional myocardial rate of glucose metabolism (MMRgl) were determined by autoradiography using a double-label study with the flow tracer ^99mTcCl(CDO)3MeB (R. K. Narra et al., J. Nucl. Med., 1989; 30:1830-1837) and ^14C-deoxy-glucose for MMRgl (L. Sokoloff et al., J. Neurochem., 1977, 28, 897-916). ^14C-deoxyglucose and the ^99mTc-hypoxia-localizing tracer were administered to a second group of rabbits with LAD coronary artery occlusion.
After the surgical preparation and 20 minutes of LAD occlusion, ^14C-deoxyglucose (130-150 μCi) was injected as an intravenous bolus, and timed arterial blood samples were obtained. Twenty-five minutes later, ^99mTcCl(CDO)3MeB (10-12 mCi) was administered intravenously. Five minutes later, the rabbits were sacrificed by intravenous injection of Nembutal and potassium chloride. The heart was excised, frozen in liquid Freon-22, and 20 μm coronal sections obtained with a Microtome. Autoradiographs were obtained on all sections. For the first exposure (˜14 hours duration) of Kodak XAR film, extra heavy duty aluminum foil was interposed between the tissue and film to block completely the radiation emanating from ^14C to obtain the MBF information derived from ^99mTcCl(CDO)3MeB alone. After three days (to allow for decay of ^99mTc); a second autoradiograph was obtained without foil. The second exposure lasted 6-8 days, and,provided an image of the regional distribution of ^14C-deoxyglucose.
In a separate experiment using the rabbit LAD occlusion model and the double-label autoradiography procedures described above, the performance of the ^99mTc complex of the ligand described in Example 1 was compared to that of ^14C-misonidazole.

hypoxic border zone = assay: Rat focal cerebral ischemia model (MCA occlusion), double-label autoradiography; assay type: in vivo, spontaneously hypertensive rats (SHR); conditions: SHR, injected 1 hour or five days after MCA occlusion, both time points
Protocol: A model of focal cerebral ischemia involving tandem occlusion of the internal carotid artery and the ipsilateral middle cerebral artery (MCA) in spontaneously hypertensive rats (SHR) was characterized using the double-label autoradiography procedure described in Example 10. […] Following surgery, which was performed under Halothane anesthesia, the rats were allowed to recover and one hour after the MCA occlusion, ^14C-deoxyglucose was injected as an IV bolus and timed arterial samples were obtained. Twenty-five minutes after ^14C-deoxyglucose injection, ^99mTcCl(DMG)32MP was injected as an IV bolus and the rat was sacrificed 15 seconds later. The brain was rapidly removed and sections and autoradiograms were obtained as described in Example 10. As found in Example 10 for the rabbit LAD occlusion model, the ischemic territory was bordered by a rim of tissue in which glycolysis was elevated. […] Nevertheless, it was clear that the ischemic region is surrounded by a border zone of increased glycolysis. In a second series of experiments, the ^99mTc complex of the ligand described in Example 1 and ^14C-deoxyglucose were co-injected 1 hour or five days after MCA occlusion.

Epc(V) ([1]; first or only reduction listed) | Reduction process ([1]; first or only reduction listed) | Compound | absorbance peak at approximately 320 nm (nitroimidazole functionality), UV/visible spectral change (xanthine oxidase) | Epc(V) ([1]; second reduction listed) | Reduction process ([1]; second reduction listed) | regional myocardial distribution pattern (autoradiography) [2] | uptake in brain autoradiograms (hypoxic border zone)
−2.15 | irreversible | CC1=[N+]([O-])[99Tc-]23(=[O])[N](CCC[N]2C(C)(C)C(C)=[N+]3O)C1(C)C [^99TcO(PnAO), Tc(V) Oxo 3,3,9,9-tetramethyl-4-8-diazaundecane-2,10-dione-dioxime, reference compound] | no spectral changes were observed over a period of 7 hours | – | – | – | –
– | – | ^14C-deoxyglucose [reference compound] | – | – | – | high uptake in the ischemic border zone | increased uptake in the hypoxic border zone relative to surrounding normoxic tissue
−1.48 | reversible | CC1=[N+](O)[99Tc-]23(=[O])[N](CC(O)C[N]2C1(C)C)C(C)(C)C(Cn1ccnc1[N+](=O)[O-])=[N+]3[O-] (stereo not drawn) [Example 6b, [^99Tc]Oxo[[6-hydroxy-3,3,9,9-tetramethyl-(2-nitro-1H-imidazo-1-yl)-4,8-diazaundecane-2,10-dione dioximato]-(3-)-N,N′,N″,N′″]technetium (V)] | decreased in intensity | −1.96 | irreversible | – | –

Compound | Epc(V) ([1]; first or only reduction listed) | Reduction process ([1]; first or only reduction listed) | absorbance peak at approximately 320 nm (nitroimidazole functionality), UV/visible spectral change (xanthine oxidase) | Epc(V) ([1]; second reduction listed) | Reduction process ([1]; second reduction listed) | regional myocardial distribution pattern (autoradiography) [2] | uptake in brain autoradiograms (hypoxic border zone)
CC1=[N+](O)[99Tc-]23(=[O])[N](CCC[N]2C1(C)C)C(C)(C)C(Cn1ccnc1[N+](=O)[O-])=[N+]3[O-] [Example 6, [^99Tc]Oxo[[3,3,9,9-tetramethyl-1-(2-nitro-1H-imidazo-1-yl)-4,8-diazaundecane-2,10-dione dioximato]-(3-)-N,N′,N″,N′″]technetium(V)] | −1.49 | reversible | decreased in intensity | −1.99 | irreversible | – | –
